Activity calls are given as the source filed them.
Key:
Protein S100-A4 = Protein S100-A4 (Homo sapiens, UniProt P26447); assay: human S100A4 peptide interaction inhibition curves – biochemical, fluorescence polarization, cherry-picked hits, dose response (AID 687001); type: functional
Nonstructural protein 1 = Nonstructural protein 1 (Influenza A virus, UniProt Q194T2); type: functional, Influenza A virus (A/California/07/2009(H1N1))
[1] = MITF: Counter assay: A375 proliferation Measured in Cell-Based System Using Plate Reader - 2084-03_Inhibitor_Dose_DryPowder_Activity_Set8.; type: functional; conditions: A-375
[2] = MITF Orthogonal Assay: SK-MEL-5 CTG Assay Measured in Cell-Based System Using Plate Reader - 2084-02_Inhibitor_Dose_DryPowder_Activity_Set7.; type: functional
Protein skinhead-1 = target: T1, Protein skinhead-1 (Caenorhabditis elegans, UniProt P34707); type: functional
T1 sequence (P34707 whole entry): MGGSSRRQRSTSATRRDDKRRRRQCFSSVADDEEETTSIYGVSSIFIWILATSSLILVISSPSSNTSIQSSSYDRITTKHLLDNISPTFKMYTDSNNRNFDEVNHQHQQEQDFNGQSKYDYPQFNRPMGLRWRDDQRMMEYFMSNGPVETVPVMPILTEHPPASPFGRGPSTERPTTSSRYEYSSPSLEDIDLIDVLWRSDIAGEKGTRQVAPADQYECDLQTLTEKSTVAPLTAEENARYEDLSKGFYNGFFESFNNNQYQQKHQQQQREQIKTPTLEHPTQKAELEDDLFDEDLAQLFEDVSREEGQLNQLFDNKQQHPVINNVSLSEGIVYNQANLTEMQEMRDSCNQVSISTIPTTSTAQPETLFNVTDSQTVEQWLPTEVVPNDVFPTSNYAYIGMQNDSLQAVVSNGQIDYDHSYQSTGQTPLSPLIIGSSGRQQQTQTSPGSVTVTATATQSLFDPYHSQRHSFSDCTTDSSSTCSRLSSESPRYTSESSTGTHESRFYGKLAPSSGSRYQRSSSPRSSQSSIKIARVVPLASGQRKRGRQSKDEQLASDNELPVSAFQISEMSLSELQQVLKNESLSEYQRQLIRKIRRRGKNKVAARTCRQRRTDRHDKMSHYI

[3] = target: T2, Oxysterols receptor LXR-beta (Homo sapiens, UniProt P55055); type: functional, cell-based;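 also: agonist activity at LXR measured by a cell-based luminescence readout across a dose range, run as a counterscreen for daf-12 agonists; HEK293 cells with Gal4-LXR fusion and GAL4-driven luciferase reporter; potency for activation of Gal4-LXR reporter so compounds are agonists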
T2 sequence (P55055 whole entry): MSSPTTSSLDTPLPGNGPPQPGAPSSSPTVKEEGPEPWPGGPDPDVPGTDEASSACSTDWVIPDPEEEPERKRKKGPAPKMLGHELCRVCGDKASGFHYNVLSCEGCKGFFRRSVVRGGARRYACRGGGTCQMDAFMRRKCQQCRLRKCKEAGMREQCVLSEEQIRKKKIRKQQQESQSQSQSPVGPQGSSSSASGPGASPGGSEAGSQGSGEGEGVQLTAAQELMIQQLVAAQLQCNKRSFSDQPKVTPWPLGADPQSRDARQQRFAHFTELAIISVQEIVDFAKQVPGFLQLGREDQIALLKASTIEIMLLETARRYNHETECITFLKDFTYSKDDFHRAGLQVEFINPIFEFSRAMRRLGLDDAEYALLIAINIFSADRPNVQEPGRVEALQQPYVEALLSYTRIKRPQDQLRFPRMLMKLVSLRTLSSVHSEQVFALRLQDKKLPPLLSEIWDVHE

HeLa = assay: ATP-based viability loss in HeLa cells – cell-based, CellTiter-Glo luminescence, cherry-pick samples, cytotoxicity control for MITF activator project, dose response (AID 540259); type: functional; conditions: Homo sapiens
[4] = target: Potassium channel subfamily K member 3 (Homo sapiens, UniProt O14649); assay: inhibition of human KCNK3 channel flux – CHO cells, FluxOR thallium flux, SAR follow-up (AID 652212); type: functional
[5] = target: Potassium channel subfamily K member 9 (Homo sapiens, UniProt Q9NPC2); assay: KCNK9 flux blockade, concentration-response – cell-based, FluxOR thallium flux, selectivity assay for TASK1 inhibitor project, SAR follow-up (AID 652211); type: functional;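 also: potency is for inhibitors of the channel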
[6] = inhibition of bursicon-driven LGR2 cAMP signaling – cell-based, HEK293, CRE-luciferase reporter, cherry pick, dose response (AID 743342); type: functional
[7] = A549 cell cytotoxicity, dose response, cytotoxicity control, plate reader, cherry-pick, antagonist series (AID 743412); type: functional, cell-based
[8] = target: Fructose-bisphosphate aldolase (Mycobacterium tuberculosis, UniProt P9WQA3); assay: Fluorescence-based biochemical high throughput dose response assay for inhibitors of the fructose-bisphosphate aldolase (FBA) of M. tuberculosis.; type: functional
[9] = target: T3, Methionyl-tRNA synthetase, putative (Trypanosoma brucei brucei, UniProt Q38C91); type: functional, Trypanosoma brucei brucei strain 927/4 GUTat10.1
[10] = Counterscreen for inhibitors of Trypanosoma brucei methionyl tRNA synthetase (MetRS): Luminescence-based cell-based high throughput dose response assay to identify compounds that are cytotoxic to Jurkat human T lymphocyte cells.; type: functional
[11] = target: T3, Methionyl-tRNA synthetase, putative; type: functional, Trypanosoma brucei brucei strain 927/4 GUTat10.1; remark: listed apart in the source
[12] = target: T4, Sentrin-specific protease 8 (Homo sapiens, UniProt Q96LD8); type: functional
T4 sequence (Q96LD8 whole entry): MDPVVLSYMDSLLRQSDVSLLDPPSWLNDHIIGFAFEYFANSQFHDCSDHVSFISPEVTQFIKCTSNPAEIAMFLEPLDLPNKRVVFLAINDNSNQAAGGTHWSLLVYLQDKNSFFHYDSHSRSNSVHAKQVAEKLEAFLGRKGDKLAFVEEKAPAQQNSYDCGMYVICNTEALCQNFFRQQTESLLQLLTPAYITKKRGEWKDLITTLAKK

[13] = target: T4, Sentrin-specific protease 8; type: functional; remark: listed apart in the source
fMet-Leu-Phe receptor = fMet-Leu-Phe receptor (Homo sapiens, UniProt P21462); assay: formyl peptide receptor binders – dose response (AID 519); type: functional
[14] = A Cell-Based Confirmatory Screen for Compounds that Inhibit VEEV, TC-83 (8).; type: functional
[15] = viability of uninfected HEp-2 cells – cell-based, HTS, cytotoxicity control for RSV inhibitor project, dose response (AID 2410); type: functional; conditions: human respiratory syncytial virus
[16] = target: Arf-GAP with SH3 domain, ANK repeat and PH domain-containing protein 1 (Homo sapiens, UniProt Q9ULH1); type: functional;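 also: biochemical fluorescence polarization dose–response screen measuring inhibition of ASAP1; ASAP1 GAP domain stimulating GTP hydrolysis by truncated human ARF1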
NS3 = NS3 (Hepatitis C virus, UniProt A3EZJ3); assay: NS3h DNA-binding inhibition IC50 – biochemical, fluorescence polarization, ChemBridge library, dose response (AID 743264)
[17] = viability of BHK-21 cells – cell-based, secondary screen, cytotoxicity control for flavivirus guanylyltransferase probe project (AID 624078); type: functional
[18] = target: T5, Scavenger receptor class B member 1 (Mus musculus, UniProt Q61009); assay: mouse SR-BI DiI-HDL transfer blockers – ldlA[mSR-BI] CHO cells, fluorescence plate reader, dry powder, set 9, dose response (AID 623880); type: functional, cell-based
[19] = target: T5, Scavenger receptor class B member 1; assay: blockers of DiI-HDL lipid transfer via SR-BI – cell-based, ldlA[mSR-BI] CHO, DiI fluorescence, dry powder, set 10, dose response (AID 624029); type: functional
Albumin = Albumin (Bos taurus, UniProt P02769); assay: Counterscreen for inhibitors of T-cell receptor (TCR)-CD3 interaction: Fluorescence-based biochemical high throughput dose response assay to identify inhibitors of T-cell receptor (TCR)-CD3 interaction using a TAMRA-labeled BSA probe.; type: functional
H9c2 = assay: cells; type: functional, cell-based; conditions: Rattus norvegicus, H9c2, Myocardium;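 also: confirmatory concentration-response retest of ultra-high-throughput screening hits for modulation of myocardial damage; cell death induced by hydrogen peroxide oxidative stress; compound pretreatment for 60 min then peroxide exposure for 2 h; potency is for protecting the cells against peroxide damage rather than for killing them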
[20] = target: T6, Probable nicotinate-nucleotide adenylyltransferase (Staphylococcus aureus (strain N315), UniProt P65502); type: functional, Staphylococcus aureus subsp. aureus N315; conditions: read-out: IC50_Mean;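 as to IC50 Mean: confirmatory dose-response retesting of NadD inhibitor hits first found in an ultra-high-throughput screen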
[21] = target: T6, Probable nicotinate-nucleotide adenylyltransferase; type: functional, Staphylococcus aureus subsp. aureus N315
Aminopeptidase N = target: T7, Aminopeptidase N (Plasmodium falciparum FcB1/Columbia, UniProt O96935); assay: malaria alanyl aminopeptidase activity blockers – biochemical, fluorogenic H-Leu-NHMec substrate, 1536-well (AID 1445); design: species or system Plasmodium falciparum 3D7, 3D7
T7 sequence (O96935 whole entry): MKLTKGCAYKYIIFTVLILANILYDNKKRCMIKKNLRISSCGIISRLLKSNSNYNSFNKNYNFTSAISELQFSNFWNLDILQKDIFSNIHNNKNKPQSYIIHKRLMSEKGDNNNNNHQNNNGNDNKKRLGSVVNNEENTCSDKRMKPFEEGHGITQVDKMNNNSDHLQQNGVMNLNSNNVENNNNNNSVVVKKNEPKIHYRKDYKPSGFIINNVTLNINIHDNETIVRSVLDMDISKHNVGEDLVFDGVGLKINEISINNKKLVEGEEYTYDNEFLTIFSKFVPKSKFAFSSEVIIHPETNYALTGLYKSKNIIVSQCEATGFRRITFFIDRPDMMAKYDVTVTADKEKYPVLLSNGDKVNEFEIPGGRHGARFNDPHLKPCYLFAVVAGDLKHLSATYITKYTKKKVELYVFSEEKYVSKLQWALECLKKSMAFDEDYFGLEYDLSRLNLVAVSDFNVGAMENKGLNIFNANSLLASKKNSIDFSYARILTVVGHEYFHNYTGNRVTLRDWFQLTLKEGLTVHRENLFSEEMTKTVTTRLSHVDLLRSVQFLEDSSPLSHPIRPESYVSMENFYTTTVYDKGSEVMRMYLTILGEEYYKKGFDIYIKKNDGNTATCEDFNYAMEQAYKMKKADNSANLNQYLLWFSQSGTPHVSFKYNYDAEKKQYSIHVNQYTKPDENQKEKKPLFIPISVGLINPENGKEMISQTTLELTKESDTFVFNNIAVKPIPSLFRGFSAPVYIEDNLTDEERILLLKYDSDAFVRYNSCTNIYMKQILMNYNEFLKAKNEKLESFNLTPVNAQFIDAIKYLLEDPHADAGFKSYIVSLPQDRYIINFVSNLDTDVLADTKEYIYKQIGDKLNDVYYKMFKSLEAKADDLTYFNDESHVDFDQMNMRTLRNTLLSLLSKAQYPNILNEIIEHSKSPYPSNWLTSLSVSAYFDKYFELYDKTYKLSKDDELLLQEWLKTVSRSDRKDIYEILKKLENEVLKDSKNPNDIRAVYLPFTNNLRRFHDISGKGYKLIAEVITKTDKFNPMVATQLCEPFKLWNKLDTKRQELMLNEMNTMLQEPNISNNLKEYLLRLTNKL

[22] = target: Endoplasmic reticulum aminopeptidase 1 (Homo sapiens, UniProt Q9NZ08); assay: inhibition of human ERAP1 enzyme activity – biochemical, cherry-pick, set 2, plate reader, dose response (AID 743314)
Chain of Endoplasmic reticulum aminopeptidase 1 (Q9NZ08 whole entry): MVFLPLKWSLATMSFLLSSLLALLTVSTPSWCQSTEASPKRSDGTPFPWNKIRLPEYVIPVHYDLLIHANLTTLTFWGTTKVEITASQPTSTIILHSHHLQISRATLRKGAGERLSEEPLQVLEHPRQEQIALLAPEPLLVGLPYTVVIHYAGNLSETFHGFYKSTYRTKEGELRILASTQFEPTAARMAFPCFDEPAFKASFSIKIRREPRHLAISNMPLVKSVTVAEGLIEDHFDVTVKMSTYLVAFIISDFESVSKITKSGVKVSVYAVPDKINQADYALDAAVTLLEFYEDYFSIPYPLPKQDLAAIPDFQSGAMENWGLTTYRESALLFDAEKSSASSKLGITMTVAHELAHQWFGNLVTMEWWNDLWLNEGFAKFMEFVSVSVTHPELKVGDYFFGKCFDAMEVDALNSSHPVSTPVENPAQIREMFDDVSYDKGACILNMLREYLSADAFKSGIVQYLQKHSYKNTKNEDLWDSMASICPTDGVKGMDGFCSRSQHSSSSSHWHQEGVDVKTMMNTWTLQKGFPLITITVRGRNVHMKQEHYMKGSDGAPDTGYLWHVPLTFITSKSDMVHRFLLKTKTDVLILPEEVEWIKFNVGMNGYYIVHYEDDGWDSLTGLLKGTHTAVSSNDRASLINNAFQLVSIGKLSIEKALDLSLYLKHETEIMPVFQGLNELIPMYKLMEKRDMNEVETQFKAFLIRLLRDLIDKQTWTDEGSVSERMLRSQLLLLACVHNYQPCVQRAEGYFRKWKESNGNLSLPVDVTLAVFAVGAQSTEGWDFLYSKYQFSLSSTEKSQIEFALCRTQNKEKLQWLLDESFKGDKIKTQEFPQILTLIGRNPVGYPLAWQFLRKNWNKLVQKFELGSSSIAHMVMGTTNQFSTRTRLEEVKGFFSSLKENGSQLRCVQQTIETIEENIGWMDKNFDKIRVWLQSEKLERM

T5 sequence (Q61009 whole entry): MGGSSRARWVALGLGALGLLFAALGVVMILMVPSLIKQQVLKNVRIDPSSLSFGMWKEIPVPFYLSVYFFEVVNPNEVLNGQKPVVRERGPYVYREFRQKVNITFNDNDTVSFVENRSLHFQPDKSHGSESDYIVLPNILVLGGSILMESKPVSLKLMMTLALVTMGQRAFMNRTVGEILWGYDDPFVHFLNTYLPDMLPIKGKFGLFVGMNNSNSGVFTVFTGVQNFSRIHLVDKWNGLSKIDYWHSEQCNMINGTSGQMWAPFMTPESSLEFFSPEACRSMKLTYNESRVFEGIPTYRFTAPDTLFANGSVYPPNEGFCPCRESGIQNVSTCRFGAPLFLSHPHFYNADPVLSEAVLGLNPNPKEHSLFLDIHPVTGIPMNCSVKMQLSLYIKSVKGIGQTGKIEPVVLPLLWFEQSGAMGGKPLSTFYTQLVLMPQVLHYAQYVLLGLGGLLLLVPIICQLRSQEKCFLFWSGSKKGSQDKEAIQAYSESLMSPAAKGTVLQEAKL
T3 sequence (Q38C91 whole entry): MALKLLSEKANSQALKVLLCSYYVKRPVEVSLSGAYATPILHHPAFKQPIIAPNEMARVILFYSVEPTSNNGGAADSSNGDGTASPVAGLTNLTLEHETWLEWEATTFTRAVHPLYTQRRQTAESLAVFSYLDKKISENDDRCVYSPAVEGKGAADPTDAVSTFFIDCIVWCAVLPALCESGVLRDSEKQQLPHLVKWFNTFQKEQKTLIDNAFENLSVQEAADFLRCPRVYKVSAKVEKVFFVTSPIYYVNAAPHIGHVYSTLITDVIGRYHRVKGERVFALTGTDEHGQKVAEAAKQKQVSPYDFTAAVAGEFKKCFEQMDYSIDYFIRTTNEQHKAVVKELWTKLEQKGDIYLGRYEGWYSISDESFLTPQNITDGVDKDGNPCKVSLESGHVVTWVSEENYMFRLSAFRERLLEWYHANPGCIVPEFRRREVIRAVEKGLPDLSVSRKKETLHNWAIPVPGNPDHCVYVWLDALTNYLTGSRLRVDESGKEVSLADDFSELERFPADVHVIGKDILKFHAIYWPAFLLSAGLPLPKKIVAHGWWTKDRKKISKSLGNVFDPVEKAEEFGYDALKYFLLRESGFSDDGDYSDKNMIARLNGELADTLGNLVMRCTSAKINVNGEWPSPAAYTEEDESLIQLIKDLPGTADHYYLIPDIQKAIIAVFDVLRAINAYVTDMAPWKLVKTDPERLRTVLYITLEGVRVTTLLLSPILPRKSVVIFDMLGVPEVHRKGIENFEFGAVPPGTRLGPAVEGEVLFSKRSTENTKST
T6 sequence (P65502 whole entry): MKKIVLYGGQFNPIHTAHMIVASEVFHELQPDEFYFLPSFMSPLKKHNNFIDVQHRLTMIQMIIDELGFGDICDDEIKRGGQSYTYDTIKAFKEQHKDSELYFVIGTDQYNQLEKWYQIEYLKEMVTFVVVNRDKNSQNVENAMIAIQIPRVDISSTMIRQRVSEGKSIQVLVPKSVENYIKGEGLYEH
Chain of Nonstructural protein 1 (Q194T2 whole entry): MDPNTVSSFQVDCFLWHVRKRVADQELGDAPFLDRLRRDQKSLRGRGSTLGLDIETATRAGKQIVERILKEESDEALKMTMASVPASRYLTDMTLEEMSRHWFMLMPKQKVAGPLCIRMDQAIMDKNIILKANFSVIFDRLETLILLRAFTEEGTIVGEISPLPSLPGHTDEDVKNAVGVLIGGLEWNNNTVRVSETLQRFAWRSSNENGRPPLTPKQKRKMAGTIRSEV
Chain of fMet-Leu-Phe receptor (P21462 whole entry): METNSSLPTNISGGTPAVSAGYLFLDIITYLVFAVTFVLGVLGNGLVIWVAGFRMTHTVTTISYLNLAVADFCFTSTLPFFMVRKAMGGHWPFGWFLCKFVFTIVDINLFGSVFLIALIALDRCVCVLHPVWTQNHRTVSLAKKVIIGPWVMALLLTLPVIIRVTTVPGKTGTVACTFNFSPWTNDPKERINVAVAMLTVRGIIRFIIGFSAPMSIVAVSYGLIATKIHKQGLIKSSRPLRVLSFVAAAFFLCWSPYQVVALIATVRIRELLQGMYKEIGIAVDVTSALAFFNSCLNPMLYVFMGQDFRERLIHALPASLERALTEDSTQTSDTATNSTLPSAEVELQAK
Chain of Protein S100-A4 (P26447 whole entry): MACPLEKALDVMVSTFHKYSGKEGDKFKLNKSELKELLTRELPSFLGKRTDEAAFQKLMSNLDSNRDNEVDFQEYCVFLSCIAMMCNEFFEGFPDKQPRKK
Chain of Albumin (P02769 whole entry): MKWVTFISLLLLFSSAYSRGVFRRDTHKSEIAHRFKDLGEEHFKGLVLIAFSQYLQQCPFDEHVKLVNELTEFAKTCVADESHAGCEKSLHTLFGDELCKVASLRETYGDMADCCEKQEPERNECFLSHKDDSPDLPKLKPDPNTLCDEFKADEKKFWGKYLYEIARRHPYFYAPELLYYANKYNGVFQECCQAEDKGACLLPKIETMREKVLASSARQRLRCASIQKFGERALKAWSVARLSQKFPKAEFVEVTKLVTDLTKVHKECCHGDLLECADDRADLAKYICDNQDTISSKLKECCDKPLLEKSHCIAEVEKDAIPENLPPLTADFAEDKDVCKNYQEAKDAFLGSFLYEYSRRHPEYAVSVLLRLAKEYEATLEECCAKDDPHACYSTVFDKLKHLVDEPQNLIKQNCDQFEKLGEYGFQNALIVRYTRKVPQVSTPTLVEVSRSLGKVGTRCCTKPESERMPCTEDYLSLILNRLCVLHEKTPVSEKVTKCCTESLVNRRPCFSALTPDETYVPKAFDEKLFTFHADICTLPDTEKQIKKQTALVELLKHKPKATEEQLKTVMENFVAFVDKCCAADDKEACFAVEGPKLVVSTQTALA
Chain of Potassium channel subfamily K member 3 (O14649 whole entry): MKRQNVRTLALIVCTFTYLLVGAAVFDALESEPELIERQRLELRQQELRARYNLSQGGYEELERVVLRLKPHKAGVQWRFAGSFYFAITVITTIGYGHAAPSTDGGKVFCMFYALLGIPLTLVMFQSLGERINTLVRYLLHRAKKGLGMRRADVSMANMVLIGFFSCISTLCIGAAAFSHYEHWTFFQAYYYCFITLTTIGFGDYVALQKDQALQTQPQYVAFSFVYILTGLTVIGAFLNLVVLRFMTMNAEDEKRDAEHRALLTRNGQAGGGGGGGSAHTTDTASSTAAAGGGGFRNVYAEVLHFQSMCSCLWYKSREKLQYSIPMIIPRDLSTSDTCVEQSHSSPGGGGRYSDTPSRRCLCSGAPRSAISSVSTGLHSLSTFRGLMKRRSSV
Chain of Fructose-bisphosphate aldolase (P9WQA3 whole entry): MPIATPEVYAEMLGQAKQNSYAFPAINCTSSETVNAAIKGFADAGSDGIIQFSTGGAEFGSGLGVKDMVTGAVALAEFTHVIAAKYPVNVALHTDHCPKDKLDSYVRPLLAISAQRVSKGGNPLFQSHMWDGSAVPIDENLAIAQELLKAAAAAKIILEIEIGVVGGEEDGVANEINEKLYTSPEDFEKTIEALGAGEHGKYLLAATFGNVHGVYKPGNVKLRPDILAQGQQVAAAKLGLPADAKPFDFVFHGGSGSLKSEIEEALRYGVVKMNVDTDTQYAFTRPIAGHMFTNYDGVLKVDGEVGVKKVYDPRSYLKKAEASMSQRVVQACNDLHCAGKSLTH
Chain of Potassium channel subfamily K member 9 (Q9NPC2 whole entry): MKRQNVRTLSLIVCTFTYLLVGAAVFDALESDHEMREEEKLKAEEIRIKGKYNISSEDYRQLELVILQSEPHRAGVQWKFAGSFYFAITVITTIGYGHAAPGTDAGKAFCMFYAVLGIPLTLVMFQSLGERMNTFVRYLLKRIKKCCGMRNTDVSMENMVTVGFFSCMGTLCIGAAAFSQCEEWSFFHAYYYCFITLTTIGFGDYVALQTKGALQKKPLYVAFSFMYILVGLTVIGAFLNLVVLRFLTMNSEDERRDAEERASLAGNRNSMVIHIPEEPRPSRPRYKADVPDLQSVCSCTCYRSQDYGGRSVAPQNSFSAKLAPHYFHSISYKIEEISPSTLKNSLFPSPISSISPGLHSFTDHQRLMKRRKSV

Compound: CC1N(C)c2cc(NC(=O)c3ccco3)ccc2C1(C)C (configuration not stated)
- AC50 (Protein S100-A4): 1.91 µM (active)
- IC50 (Nonstructural protein 1): 69.6 µM (active)

Compound: O=C1C=C(Nc2ccc(F)cc2)C(=O)c2ccccc21
- AC50 [1]: > 70 µM (inactive)
- AC50 [2]: 0.595 µM (active)

Compound: C/C(=N/OCc1ccc(Br)cc1)c1ccccn1
- IC50 (Protein skinhead-1): 34.5 µM (active)
- EC50 [3]: > 67.6 µM (inactive)
- AC50 (HeLa): 90.3 µM (active)

Compound: COc1ccc(F)cc1C(=O)Nc1cccc(NC(=O)c2cccc(C)c2)c1
- IC50 [4]: 0.225 µM (active)
- IC50 [5]: 0.87 µM (active)

Compound: C[C@H]1CCCCO[C@@H](CN(C)C(=O)Nc2ccccc2)[C@@H](C)CN([C@@H](C)CO)C(=O)c2cc(NC(=O)NC3CCCCC3)ccc2O1
- AC50 [6]: 5.33 µM (active)
- AC50 [7]: 43.3 µM (active)

Compound: Cc1nc2oc3c(=O)nc[nH]c3c2c2c1COC(C)(C)C2
- IC50 [8]: 2.33 µM (active)

Compound: COc1ccc(OCc2cc(C(=O)NCc3nc(C)cs3)no2)c(Cl)c1
- IC50 [9]: 46.9 µM (inactive)
- IC50 [10]: 83.3 µM (inactive)
- IC50 [11]: 23.5 µM (inactive)

Compound: CCCCO/C(O)=C1\C(C)=NC2(O)c3ccccc3C(=O)C12O (configuration not stated)
- IC50 [12]: 4.54 µM (active)
- IC50 [13]: 10 µM (active)

Compound: CSc1ccccc1NS(=O)(=O)c1ccccc1
- Ki (fMet-Leu-Phe receptor): > 66.7 µM (inactive)

Compound: CCN1CCN(C)C/C1=N\c1ccc([N+](=O)[O-])cc1C(=O)Nc1ccccc1
- IC50 [14]: < 0.22 µM (active)

Compound: Fc1ccc(Nc2nc(-c3ccncc3)nc3ccccc23)cc1F
- CC50 [15]: 45.1 µM (active)
- IC50 [16]: 46.5 µM (inactive)

Compound: Cc1ccc(C)n1NC1=NC(=O)CS1
- IC50 (NS3): 27.2 µM (inactive)

Compound: O=C(O)CSc1cc(NS(=O)(=O)c2cccc3cccnc23)c2ccccc2c1O
- CC50 [17]: 6.1 µM (active)

Compound: C[C@@H]1CN([C@H](C)CO)C(=O)c2cc(NC(=O)C3CCCCC3)ccc2O[C@H]1CN(C)S(=O)(=O)c1cccc(Cl)c1
- AC50 [18]: 0.796 µM (active)
- AC50 [19]: 1.22 µM (active)

Compound: CCOC(=O)Cn1/c(=N/C(=O)c2cc(-c3cccs3)nc3ccccc23)sc2cc(S(N)(=O)=O)ccc21
- IC50 (Albumin): > 94.1 µM (inactive)
- IC50 (H9c2): > 79 µM (inactive)
- IC50 [20]: 31.4 µM (active)
- IC50 [21]: 14.2 µM (active)

Compound: CC(=O)OC[C@@H]1CN(Cc2ccccc2)C[C@H](n2cnc3c(N(C)C(C)C)ncnc32)O1
- AC50 (cells): 28.8 µM (active)

Compound: CN1CCN(Cc2c(O)ccc3cc(-c4ccccn4)c(=O)oc23)CC1
- IC50 (Aminopeptidase N): 52.2 µM (active)
- AC50 [22]: 1.88 µM (active)

— ChEMBL document CHEMBL1201862, “PubChem BioAssay data set” (2004)
